Measured values reported in the Biogen ADME set (Fang et al. 2023).
In brackets after ≈: the same amount, converted by molar mass.

Details: for aqueous solubility: pH 6.8

| SMILES | MDR1-MDCK efflux ratio | intrinsic clearance, human liver microsomes [mL/min/kg] | intrinsic clearance, rat liver microsomes [mL/min/kg] | aqueous solubility [µg/mL] | fraction unbound, human plasma | fraction unbound, rat plasma |
| --- | --- | --- | --- | --- | --- | --- |
| COc1ccc(S(=O)(=O)CCC(=O)Nc2ccc3c(c2)N(C)C(=O)CO3)cc1 | 27.6 | ≤ 4.74 | 109 | 62.2 (≈ 154 µM) |  |  |
| CN(Cc1nc2ccccc2n1C)c1ccnc(-c2ccccc2)n1 |  | 105 | 1740 |  |  |  |
| O=C(c1cc(-c2ccc(F)cc2)on1)N1CC[C@H](Oc2ccccc2F)[C@@H](O)CC1 | 0.861 | 48.5 | 600 |  |  |  |
| CC(C)(C)C(=O)N1CCC(Cc2ccc(-c3cccs3)cc2)(C(=O)N2CCCC2)CC1 | 0.998 | 223 | 1440 | 23 (≈ 52.4 µM) | 0.00655 | 0.0102 |
| COc1cccc(CN2CCC(Cc3ccc(-c4cccnc4)cc3)(C(N)=O)CC2)c1 | 7.02 | 108 | 631 | 70.6 (≈ 170 µM) |  |  |
| COCc1cccc(NC(=O)c2cn(C)c3ccccc23)c1 |  |  |  | 3.71 (≈ 12.6 µM) |  |  |
| Cc1cc(C)c2ccc(C(=O)N3CCN(c4ncc[nH]c4=O)CC3)cc2n1 | 65.9 | ≤ 4.74 | 53.4 |  |  |  |
| COc1cc2c(cc1OC)CN(C(=O)C1CCCN(C(=O)c3ccc(Cl)cc3)C1)CC2 (stereo not given) | 10.1 |  |  |  |  |  |
| Fc1ccc(-c2ccc3c(c2)[nH]c2ccncc23)cn1 | 0.469 | 16.8 | 162 |  | 0.045 | 0.0437 |
| Cc1n[nH]c(-c2c(C)c3cc(F)ccc3n2C)n1 | 0.509 | 88.2 | 316 | 23.5 (≈ 96.2 µM) |  |  |
| C=CC(=O)N1CCC(CNc2ncnc(N)c2-c2ccc(Oc3ccccc3)cc2)CC1 | 24.7 | 191 | 1450 | 10.1 (≈ 23.5 µM) | 0.0566 | 0.0797 |
| O=C(CSc1ccc2c(c1)OCCO2)NC1CCCC1 | 0.73 | 83.8 | 5820 |  |  |  |
| COc1ccc(C)cc1S(=O)(=O)NCCC(=O)Nc1ccccc1C | 16.9 | 92 | 2150 |  |  |  |
| Cn1cc(Nc2nccc(N3CC4CCC(C3)N4C(=O)[C@@H]3CC3(F)F)n2)cn1 | 39.9 | 7.26 | 32.5 |  | 0.44 | 0.612 |
| C#CCOc1ccc(C(=O)NN2CCCC2=O)cc1 | 1.32 | ≤ 4.74 | ≤ 10.7 | 25.3 (≈ 97.9 µM) |  |  |
| COc1cccc(Cn2cnc3c(c2=O)COCC3)c1Cl | 0.9 | 5.71 | 138 |  |  |  |
| Cc1cccnc1Nc1cccc(C2CCCN(CC(=O)Nc3nccs3)C2)n1 (stereo not given) | 1.49 | 89.9 | 582 |  | 0.0152 | 0.0434 |
| O=C(Nc1ccc2c(c1)OCCCO2)c1cnn(Cc2ccccc2)c1 | 0.64 | 6.05 | 492 | 16.5 (≈ 47.2 µM) |  |  |
| COc1ccc(C)cc1NC(=O)CN1CCc2ccccc2C1 | 0.497 | 191 | 2320 | 15.5 (≈ 50 µM) |  |  |
| Cc1cc(-c2ccc(N)nc2)cc(C2CCN(C(=O)CCCc3ccc(F)c(C)c3)CC2)n1 | 2.7 | 963 | 1910 | 8.44 (≈ 18.9 µM) |  |  |
| CN1CC(=O)N(CCOc2ccccc2)C1=O |  |  |  | 23.1 (≈ 98.4 µM) |  |  |
